Target: T1, Polyunsaturated fatty acid 5-lipoxygenase (Rattus norvegicus, UniProt P12527)
T1 sequence (P12527 whole entry): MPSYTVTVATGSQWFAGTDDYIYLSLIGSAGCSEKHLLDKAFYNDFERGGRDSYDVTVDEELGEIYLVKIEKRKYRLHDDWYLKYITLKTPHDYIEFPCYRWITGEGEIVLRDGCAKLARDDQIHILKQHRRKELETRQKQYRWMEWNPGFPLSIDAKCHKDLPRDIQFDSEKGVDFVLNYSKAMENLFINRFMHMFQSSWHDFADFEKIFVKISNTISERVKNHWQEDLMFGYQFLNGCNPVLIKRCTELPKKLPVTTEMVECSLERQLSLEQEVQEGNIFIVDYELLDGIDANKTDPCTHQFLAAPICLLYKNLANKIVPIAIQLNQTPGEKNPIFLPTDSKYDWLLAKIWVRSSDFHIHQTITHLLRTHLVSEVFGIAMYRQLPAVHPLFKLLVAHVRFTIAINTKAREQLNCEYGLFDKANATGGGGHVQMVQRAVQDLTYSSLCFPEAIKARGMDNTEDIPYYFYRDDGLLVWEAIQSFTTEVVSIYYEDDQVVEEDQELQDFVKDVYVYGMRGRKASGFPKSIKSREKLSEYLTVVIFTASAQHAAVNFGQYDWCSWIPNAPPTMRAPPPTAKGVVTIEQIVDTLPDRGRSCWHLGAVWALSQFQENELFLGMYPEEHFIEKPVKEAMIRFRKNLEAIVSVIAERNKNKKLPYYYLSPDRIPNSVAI
Assay: Inhibition of 5-lipoxygenase of rat basophilic leukemia (RBL) cell cytosolic enzymes
Set-up: species or system RBL-1

Structure (SMILES)	IC50
COc1cc(/C=C/C=C/c2nc3cc(Cl)ccc3o2)ccc1O	0.38 µM
COc1cc(/C=C/C=C/C(=O)NCCN2CCC(OC(c3ccccc3)c3ccccc3)CC2)ccc1O	0.15 µM
Oc1ccc(/C=C/C=C/c2nc3ccccc3o2)cc1O	0.03 µM
COc1cc(/C=C/C=C/c2nc3ccccc3o2)ccc1O	0.33 µM
COc1cc(/C=C/C=C/c2nc3ccc(CO)cc3o2)ccc1O	0.3 µM
COc1cc(/C=C/C=C/c2nc3ncccc3o2)ccc1O	0.37 µM
COc1cc(/C=C/C=C/c2nc3c(ccc4ccccc43)o2)ccc1O	0.17 µM
COc1cc(/C=C/C=C/c2nc3cc(C(=O)O)ccc3o2)ccc1O	5.8 µM
COc1cc(/C=C/C=C/c2nc3cc(CO)ccc3o2)ccc1O	0.26 µM
CCOC(=O)c1ccc2nc(/C=C/C=C/c3ccc(O)c(OC)c3)oc2c1	0.13 µM
CCOC(=O)c1ccc2oc(/C=C/C=C/c3ccc(O)c(OC)c3)nc2c1	0.25 µM
COc1cc(/C=C/C=C/c2nc3cc(C)ccc3o2)ccc1O	0.29 µM
CCOC(=O)c1ccc2oc(/C=C/C=C/c3ccc(O)c(O)c3)nc2c1	0.02 µM
CCOC(=O)/C=C/c1ccc(O)c(O)c1 [ETHYL CAFFEATE]	1.15 µM

— ChEMBL document CHEMBL1128137, “A novel series of highly potent 5-lipoxygenase inhibitors; 2-aryldienylbenzoxazoles” (Bioorg Med Chem Lett, 1995)
